PubChem BioAssay AID1996
Values after ≈ are worked out from the molar mass of the structure shown.

Details: buffer; pH 7.4; 200.0 µM

Structure (SMILES)	solubility kinetic [µg/mL]
Cc1cc(C)nc(SCC(N)=O)n1	28.5 (≈ 144 µM)
O=C(O)c1cc(S(=O)(=O)N2CCCCC2)ccc1Cl	> 45.6
Cc1ccc2ncnc(Nc3cccc([N+](=O)[O-])c3)c2c1	5.9 (≈ 21 µM)
COc1ccc(CN2C(=O)c3cccc4cccc2c34)cc1F	9.8 (≈ 31.9 µM)
CN(C)c1ccc(/C=C/C(=O)c2ccc(O)cc2)cc1[N+](=O)[O-]	1.2 (≈ 3.84 µM)
O=C(O)c1csc(-c2cccs2)n1	> 31.7
COc1ccc(/C=C/C(=O)OCC(=O)NC(C)CCc2ccccc2)cc1OC (stereo unspecified)	23.9 (≈ 60.1 µM)
Nc1cc(=O)[nH]c(SCC(=O)N2CCCC2)n1	> 38.1
COc1ccc(S(=O)(=O)N2CCc3ccccc32)cc1C(=O)NCC(c1ccco1)N1CCCC1 (stereo unspecified)	20.1 (≈ 40.6 µM)
NS(=O)(=O)c1cccc(C(=O)NC2CCSc3ccccc32)c1 (stereo unspecified)	42.4 (≈ 122 µM)
CC(=O)C1C(c2ccc(Cl)cc2)c2c(noc2C)CC1(C)O (stereo unspecified)	> 48
COc1ccc(CNC(=O)CC2(CC(=O)O)CCCCC2)cc1	> 47.9
Cc1ccccc1C(=O)NC(=S)NCc1cccnc1	> 42.8
COc1ccccc1NC(=O)NC1(C(=O)N2CCCCC2)CCCCC1	10 (≈ 27.8 µM)
CCn1cc(CCC(=O)NC(C)c2ccccc2)c2ccccc21 (stereo unspecified)	7.4 (≈ 23.1 µM)
CSCC(=O)NCC1(N(C)Cc2ccccc2)Cc2ccccc2C1	> 53.2
CC1CN=C(NCc2ccccc2Cl)S1 (stereo unspecified)	> 36.1
CC(=O)c1c(C)[nH]c(C(=O)/C(C#N)=C/c2cccc(C)c2)c1C	39.5 (≈ 129 µM)
CC(C)c1ccc(NC(=O)c2ccccc2NC(=O)C2CC=CCC2C(=O)O)cc1 (stereo unspecified)	> 61
O=C1[C@H](O)[C@@H](O)C(=O)N1Cc1ccccc1	> 33.2
CCC(NC(=O)C1CCCO1)c1ccccc1 (stereo unspecified)	> 35
O=C(NC12CC3CC(CC(C3)C1)C2)c1cc([N+](=O)[O-])ccc1Cl	0.6 (≈ 1.79 µM)

Structure (SMILES)	solubility kinetic [µg/mL]
CC(C)CC1C2C(=O)N(c3ccccc3)C(=O)C2ON1c1ccccc1 (stereo unspecified)	27.7 (≈ 79 µM)
CCC(CC)C(=O)c1c[nH]c(C(=O)NCc2ccccc2)c1	2.2 (≈ 7.37 µM)
CC(=O)C1=C(C)OC(N)=C(C#N)C1c1cccnc1 (stereo unspecified)	> 38.3
CC(=O)n1c2ccccc2c2nc3ccccc3nc21	1.1 (≈ 4.21 µM)
COc1ccc(NC2CCCN(Cc3cccc4cnccc34)C2)cc1 (stereo unspecified)	49.4 (≈ 142 µM)
Cc1nc2ccccc2c(=O)n1-c1cccc(C(F)(F)F)c1	43.6 (≈ 143 µM)
Cn1ccnc1SCC(=O)c1cccc(C(F)(F)F)c1	> 45
Cc1cc(C)c(NC(=O)C2CC(=O)N(C(C)C)C2)c(C)c1 (stereo unspecified)	> 43.3
O=C(Nc1cccc(S(=O)(=O)Nc2ccc(SC(F)F)cc2)c1)C1CCC1	34.8 (≈ 84.4 µM)
CN(C)c1ncnc2sc(-c3ccccc3)cc12	3 (≈ 11.7 µM)
CC(C)N1CC(C(=O)Nc2cccc([N+](=O)[O-])c2)CC1=O (stereo unspecified)	> 43.7
COc1ccc(NC(=O)CSc2nc3ccccc3c(=O)n2C)cc1	< 0.3
O=C(c1ccc(Cl)cc1Cl)N1CCN(c2ccccn2)CC1	> 50.4
COc1ccc(Cc2nc3ccccc3[nH]c2=O)cc1	4.7 (≈ 17.6 µM)
COc1ccc(CCNc2ccc([N+](=O)[O-])cn2)cc1	7.1 (≈ 26 µM)
Cc1ccccc1NC(=S)N(Cc1cccs1)C1CCCC1	13.3 (≈ 40.2 µM)
Nc1cccc(NC(=O)CCC(=O)NCc2ccco2)c1	> 43.1
Nc1ccn(C2CC(O)C(CO)O2)c(=O)n1 (stereo unspecified)	> 34.1
O=C(OCC(=O)N1CCCCC1)c1ccc2ccccc2n1	> 44.7
O=C1CCC(=O)N1CC(=O)N1CCCc2ccccc21	28.5 (≈ 105 µM)
Cc1cccc(C)c1NC(=O)c1cccc(C(=O)Nc2c(C)cccc2C)n1	27.7 (≈ 74.2 µM)
CC(C)N1CCN(Cc2cc3c(cc2Cl)OCO3)CC1CCO (stereo unspecified)	39.9 (≈ 117 µM)

Structure (SMILES)	solubility kinetic [µg/mL]
O=C(Nc1cccc(F)c1)C1CCN(C(=O)NCc2ccccc2)CC1	9.2 (≈ 25.9 µM)
CN1CCN(C(=O)c2cc(Br)cn2C)CC1	> 42.9
O=C(O)c1ccccc1Nc1ccc(OC(F)F)cc1	> 41.9
CC(C)(C)NC(=O)N1CCn2cccc2C1c1ccccc1F (stereo unspecified)	40 (≈ 127 µM)
CNC(=S)Nc1cc2oc3ccccc3c2cc1OC	33.7 (≈ 118 µM)
Cc1nc2ccccc2c(=O)n1-c1ccc(Cl)cc1Cl	> 45.8
O=S(=O)(NCCC1=CCCCC1)c1ccc(F)cc1	16.9 (≈ 59.6 µM)
CCOC(=O)NN1C(=O)c2ccccc2NC1c1ccccn1 (stereo unspecified)	> 46.8
CCC(=O)Nc1sc2c(c1C#N)CCC2	12.3 (≈ 55.8 µM)
CC(=O)OC(C(=O)NC1CCCCC1)c1cccc(F)c1 (stereo unspecified)	> 44
CCC(C)[C@H](NC(=O)NCc1ccc(F)cc1)C(=O)O (stereo partly specified)	> 42.3
CC(=O)Nc1ccc(NS(=O)(=O)c2ccc(Cl)s2)cc1	> 49.6
COc1cc(N)ccc1NC(=O)c1cc2ccccc2o1	> 42.3
O=[N+]([O-])c1ccc(Cc2ccccn2)c([N+](=O)[O-])c1	33.6 (≈ 130 µM)
Cc1cc(C(=O)OCC(=O)Nc2cccc(S(N)(=O)=O)c2)c(C)o1	> 52.9
CCc1ccc(S(=O)(=O)NCc2csc(C)n2)cc1	> 44.5
Cn1c(=O)n(C)c2cc(S(=O)(=O)N3CCN(c4ccccc4)CC3)ccc21	0.3 (≈ 0.776 µM)
CCC(C)NC(=O)CN1C(=O)NC2(CCc3ccccc3C2)C1=O (stereo unspecified)	> 49.4
O=C(CNC(=O)C1CCCCC1)NCc1ccco1	> 39.6
COc1ccccc1CNC(=O)c1ccncc1	> 36.3
CC(C)CC(=O)Nc1ccc2ccccc2c1	6.2 (≈ 27.3 µM)
O=C(NC(=O)c1ccccc1O)c1ccc2c(c1)CCO2	> 42.5

Structure (SMILES)	solubility kinetic [µg/mL]
CC(C)CCOc1ccc(C2(C)NC(=O)NC2=O)cc1 (stereo unspecified)	38.5 (≈ 139 µM)
Nc1ccc(-c2nc3ccccc3o2)cc1	20.8 (≈ 98.9 µM)
COc1ccc(C(=O)Nc2cc(C(=O)O)cc(C(=O)O)c2)cc1Cl	> 52.5
Cc1ccc2c(c1)N(CC(=O)N1CCCC(C)C1)C(=O)CO2 (stereo unspecified)	45.3 (≈ 150 µM)
CCN1CC(CN(C)Cc2nc(Cc3ccccc3)no2)CC1=O (stereo unspecified)	> 49.3
Cc1nc(C)c(C(=O)NCCC(c2ccccc2)c2ccccc2)o1	43.8 (≈ 131 µM)
COc1ccc(OC)c(N=Cc2c(O)c3ccccc3oc2=O)c1	3.6 (≈ 11.1 µM)
CC1(C)C2CCC1(C)C([NH2+]c1ccccc1)C2.[Cl-] (stereo unspecified)	< 0.6
CC(C)N(C(=O)Cc1ccccc1[N+](=O)[O-])C(C)C	> 39.6
COc1ccc(NC(=O)Nc2nc3ccccc3s2)cc1	< 0.2
CCOC(=O)CNC(=O)CSc1nc(-c2cccc(C)c2)ns1	40.9 (≈ 116 µM)
COc1ccc(N2C(S)=C(C#N)C(=O)NC23CCCCC3)cc1	19.3 (≈ 58.6 µM)
CC12CC3CC(C1)CC(C(=O)NNC(=O)c1ccncc1)(C3)C2	> 47
O=C(NC1CCS(=O)(=O)C1)c1ccc(Br)s1 (stereo unspecified)	> 48.6
O=C(O)CCC(=O)N1CCC[C@H]1C(=O)O	> 32.3
Cc1cccc(OCC(=O)NCCCNC(=O)c2ccco2)c1	46.8 (≈ 148 µM)
O=C(c1cc2cc(Br)ccc2s1)N1CCOCC1	45.8 (≈ 140 µM)
Cc1ccc(OCC(=O)O/N=C(\N)c2ccncc2)cc1C	18.6 (≈ 62.1 µM)
O=C(C[n+]1cc[nH]c1)c1ccc(Cl)cc1.[Cl-]	> 38.6
CC(=O)c1ccc(N2CCc3ccccc3C2)c([N+](=O)[O-])c1	8.3 (≈ 28 µM)
